Data as given in ChEMBL document CHEMBL4371032, “Synthesis and evaluation of 2,5-diamino and 2,5-dianilinomethyl pyridine analogues as potential CXCR4 antagonists” (2019).
Activity calls are given as the source filed them. The calls are words filed in the database; no cut-off is given here.

target: C-X-C chemokine receptor type 4 (Homo sapiens) (UniProt P61073); assay: Inhibition of biotinylated TN14003 binding to CXCR4 in human MDA-MB-231 cells preincubated for 10 mins followed by biotinylated-TN14003 addition measured after 30 mins by streptavidin-rhodamine staining based fluorescence microscopic analysis; type: cell-based
Sequence (P61073 whole entry): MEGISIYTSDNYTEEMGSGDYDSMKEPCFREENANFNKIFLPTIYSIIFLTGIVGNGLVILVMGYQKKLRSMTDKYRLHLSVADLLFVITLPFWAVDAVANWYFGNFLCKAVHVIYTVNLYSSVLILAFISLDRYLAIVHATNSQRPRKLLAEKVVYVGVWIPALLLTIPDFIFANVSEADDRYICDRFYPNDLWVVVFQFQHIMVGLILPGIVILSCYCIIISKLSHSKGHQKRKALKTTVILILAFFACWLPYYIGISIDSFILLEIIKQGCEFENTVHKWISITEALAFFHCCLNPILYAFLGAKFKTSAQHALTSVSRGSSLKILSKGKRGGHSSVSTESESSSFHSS

| EC | SMILES |
| --- | --- |
| 1000 nM | Cc1ccccc1NCc1ccc(CNc2ccccc2C)nc1 |
| 100 nM | Fc1ccccc1CNc1ccc(NCc2ccccc2F)nc1 |
| 1000 nM | CCc1ccc(NCc2ccc(CNc3ccc(CC)cc3)nc2)cc1 |
| 1000 nM | O=[N+]([O-])c1cccc(CNc2ccc(NCc3cccc([N+](=O)[O-])c3)nc2)c1 |
| 1000 nM | COc1ccc(NCc2ccc(CNc3ccc(OC)cc3)nc2)cc1 |
| 100 nM | Fc1cccc(NCc2ccc(CNc3cccc(F)c3)nc2)c1 |
| 1000 nM | Brc1ccc(NCc2ccc(CNc3ccc(Br)cc3)nc2)cc1 |
| 100 nM | Cc1ccc(NCc2ccc(CNc3ccc(C)cc3)nc2)cc1 |
| 1000 nM | Brc1ccc(CNc2ccc(NCc3ccc(Br)cc3)nc2)cc1 |
| > 1000 nM | CCc1ccc(CNc2ccc(NCc3ccc(CC)cc3)nc2)cc1 |
| 1000 nM | Fc1ccc(NCc2ccc(CNc3ccc(F)cc3)nc2)cc1 |
| 10 nM | Clc1ccc(CNc2ccc(NCc3ccc(Cl)cc3)nc2)cc1 |
| 100 nM | O=[N+]([O-])c1cccc(NCc2ccc(CNc3cccc([N+](=O)[O-])c3)nc2)c1 |
| > 1000 nM | COc1cccc(CNc2ccc(NCc3cccc(OC)c3)nc2)c1 |
| 100 nM | Cc1cccc(CNc2ccc(NCc3cccc(C)c3)nc2)c1 |
| 10 nM | Cc1ccc(CNc2ccc(NCc3ccc(C)cc3)nc2)cc1 |
| 1000 nM | O=[N+]([O-])c1ccc(CNc2ccc(NCc3ccc([N+](=O)[O-])cc3)nc2)cc1 |
| 1000 nM | O=[N+]([O-])c1ccccc1NCc1ccc(CNc2ccccc2[N+](=O)[O-])nc1 |
| 100 nM | COc1cccc(NCc2ccc(CNc3cccc(OC)c3)nc2)c1 |
| 1 nM | O=[N+]([O-])c1ccc(NCc2ccc(CNc3ccc([N+](=O)[O-])cc3)nc2)cc1 |
| 1000 nM | c1ccc(CNc2ccc(NCc3ccccc3)nc2)cc1 |
| 1000 nM | Fc1ccccc1NCc1ccc(CNc2ccccc2F)nc1 |
| > 1000 nM | COc1ccccc1CNc1ccc(NCc2ccccc2OC)nc1 |
| 1000 nM | O=[N+]([O-])c1ccccc1CNc1ccc(NCc2ccccc2[N+](=O)[O-])nc1 |
| 100 nM | Cc1ccccc1CNc1ccc(NCc2ccccc2C)nc1 |
| 1000 nM | Clc1ccc(NCc2ccc(CNc3ccc(Cl)cc3)nc2)cc1 |
| 1000 nM | c1ccc(NCc2ccc(CNc3ccccc3)nc2)cc1 |
| 100 nM | Fc1cccc(CNc2ccc(NCc3cccc(F)c3)nc2)c1 |
| 1000 nM | Fc1ccc(CNc2ccc(NCc3ccc(F)cc3)nc2)cc1 |

target: C-X-C chemokine receptor type 4 (Homo sapiens) (UniProt P61073); assay: Inhibition of CXCR4-mediated chemotaxis in human MDA-MB-231 cells assessed as reduction in CXCL12alpha-induced cell invasion at 100 nM after 22 hrs by hematoxylin/eosin dye-based matrigel assay relative to control

| SMILES | inhibition |
| --- | --- |
| Fc1ccccc1CNc1ccc(NCc2ccccc2F)nc1 | 53.3% |
| Fc1cccc(NCc2ccc(CNc3cccc(F)c3)nc2)c1 | 82.4% |
| Cc1ccc(NCc2ccc(CNc3ccc(C)cc3)nc2)cc1 | 85.1% |
| Clc1ccc(CNc2ccc(NCc3ccc(Cl)cc3)nc2)cc1 | 83.7% |
| O=[N+]([O-])c1cccc(NCc2ccc(CNc3cccc([N+](=O)[O-])c3)nc2)c1 | 73.4% |
| Cc1cccc(NCc2ccc(CNc3cccc(C)c3)nc2)c1 | 99% |
| Cc1cccc(CNc2ccc(NCc3cccc(C)c3)nc2)c1 | 50.4% |
| c1cc(CN2CCCNCCNCCCNCC2)ccc1CN1CCCNCCNCCCNCC1 | 62% |
| Cc1ccc(CNc2ccc(NCc3ccc(C)cc3)nc2)cc1 | 35.7% |
| COc1cccc(NCc2ccc(CNc3cccc(OC)c3)nc2)c1 | 76.8% |
| O=[N+]([O-])c1ccc(NCc2ccc(CNc3ccc([N+](=O)[O-])cc3)nc2)cc1 | 80.3% |
| Cc1ccccc1CNc1ccc(NCc2ccccc2C)nc1 | 82.4% |
| Fc1cccc(CNc2ccc(NCc3cccc(F)c3)nc2)c1 | 4.8% |
| COc1ccccc1NCc1ccc(CNc2ccccc2OC)nc1 | 84.1% |
| COc1ccccc1NCc1cccc(CNc2ccccc2OC)n1 | < 1% |

tested on: Mus musculus; assay: Antiinflammatory activity in C57Bl/6J mouse assessed as inhibition of carrageenan-induced paw edema at 10 mg/kg, ip treated for 2 days measured 2 hrs post last dose by caliper method relative to control; type: functional

| SMILES | inhibition in vivo at 10 mg/kg | inhibition |
| --- | --- | --- |
| Fc1cccc(NCc2ccc(CNc3cccc(F)c3)nc2)c1 | 12% | – |
| Cc1ccc(NCc2ccc(CNc3ccc(C)cc3)nc2)cc1 | – | inactive |
| Clc1ccc(CNc2ccc(NCc3ccc(Cl)cc3)nc2)cc1 | 8% | – |
| Cc1cccc(NCc2ccc(CNc3cccc(C)c3)nc2)c1 | – | inactive |
| c1cc(CN2CCCNCCNCCCNCC2)ccc1CN1CCCNCCNCCCNCC1 | – | inactive |
| COc1cccc(NCc2ccc(CNc3cccc(OC)c3)nc2)c1 | – | inactive |
| O=[N+]([O-])c1ccc(NCc2ccc(CNc3ccc([N+](=O)[O-])cc3)nc2)cc1 | 13% | – |
| c1ccc(NCc2ccc(CNc3ccccn3)cc2)nc1 | 40% | – |
| Cc1ccccc1CNc1ccc(NCc2ccccc2C)nc1 | 3% | – |
| COc1ccccc1NCc1ccc(CNc2ccccc2OC)nc1 | 11% | – |
